What was measured:
Assay type in all cases: cell-based, human
[1] = test system: plated cells of the SC-β cell protocol; experiment: Bulk RNA sequencing at stage 6 of plated cells treated with latrunculin A
Method: Cells generated with the suspension protocol were single-cell dispersed from clusters with TrypLE at the end of stage 3 and seeded onto collagen 1 coated 24-well plates at 0.625×10^6 cells/cm^2. Either 0.5 μM latrunculin A was added throughout the entirety of stage 4 or 1 μM latrunculin A was added for the first 24 hours of stage 5. After two weeks in stage 6, RNA was extracted with the RNeasy Mini Kit (Qiagen, 74016), including a DNase treatment (Qiagen, 79254) during extraction. Samples were delivered to Washington University in St. Louis Genome Technology Access Center for library preparation and sequencing. Samples were prepared by RNA depletion using Ribo-Zero according to library kit manufacturer's protocol, indexed, pooled, and sequenced on an Illumine HiSeq.
Differential gene expression analysis was performed using EdgeR. DGEList was used to create the count object and normalized the data using the trimmed mean M-values (TMM) method with calcNormFactors. Pairwise comparisons were performed using exactTest and used topTags to obtain differentially expressed genes and their respective log fold change (log FC) and adjusted p-value (FDR). These values were used to generate volcano plots using ggplot2. Hierarchical clustering and heatmaps were performed and generated with heatmap.2 (gplots) using log CPM calculated expression levels. […]

[2] = test system: HUES8 cells, hepatic differentiation protocol; experiment: Liver differentiation with cytoskeletal compounds; conditions: 1 μM for the first 24 hours of stage 3
Method: For differentiation to other endodermal lineages, HUES8 stem cells were cultured and passaged normally. Differentiations were initiated 24 hours after seeding 24-well plates at 0.521×10^6 cells/cm^2. Protocols for exocrine pancreas, intestine, and liver were adapted, from literature. Either latrunculin A or nocodazole were added as indicated in each protocol. All three differentiation protocols used the same stage 1 to induce endoderm. Stage 1 (4 days): BE1 media+100 ng/mL Activin A+3 μM CHIR99021 for the first 24 hours, followed with 3 days of BE1 containing 100 ng/mL Activin A only.
Liver Differentiation: Stage 2 (2 days): BE2 media+50 ng/mL KGF. Stage 3 (4 days): BE3 media+10 ng/mL bFGF+30 ng/mL BMP4 (R&D Systems, 314-BP). For the first 24 hours only, 2 μM retinoic acid and either 1 μM latrunculin A or 1 μM nocodazole were added. Stage 4 (5 days): BE3 media+20 ng/mL OSM (R&D Systems, 295-OM)+20 ng/mL HGF (R&D Systems, 294-HG)+100 nM dexamethasone (MilliporeSigma, D4902).

[3] = test system: plated pancreatic progenitors; experiment: Latrunculin A at different stages of SC-β cell differentiation of plated pancreatic progenitors (flow cytometry, GSIS, insulin content, qRT-PCR)
Description: For experiments investigating the effects of plating pancreatic progenitors, cells were differentiated with the suspension protocol for stages 1-3. At the end of stage 3, clusters were single cell dispersed with TrypLE and plated onto tissue culture plates coated with various ECM proteins at 0.625×10^6 cells/cm^2. Differentiation media for the remainder of this hybrid protocol were the same as for the suspension protocol with the exception that Y-27632 and Activin A were omitted on days 2-5 of stage 4. […] A variety of ECM coatings were initially tested with this plating methodology, including collagen I (Corning, 354249), collagen IV (Corning, 354245), fibronectin (Gibco, 33016-015), vitronectin (Gibco, A14700), matrigel (Corning, 356230), gelatin (Fisher, G7-500), and laminins 111, 121, 211, 221, 411, 421, 511, and 521 (Biolamina, LNKT-0201). All subsequent experiments with this hybrid protocol were performed on collagen I.
RNA was extracted from either whole clusters or cells directly on the plate with the RNeasy Mini Kit (Qiagen, 74016). Samples were treated with a DNAse kit (Qiagen, 79254) during extraction. The High Capacity cDNA Reverse Transcriptase Kit (Applied Biosystems, 4368814) was used to synthesize cDNA on a thermocycler (Applied Biosystems, A37028). The PowerUp SYBR Green Master Mix (Applied Biosystems, A25741) was used on a StepOnePlus (Applied Biosystems), and real time PCR results were analyzed using a ΔΔCt methodology. TBP and GUSB were both used as housekeeping genes. Primer sequences were as follows.
Cells were single-cell dispersed with TrypLE and fixed with 4% PFA for 30 minutes. Cells were then washed with PBS and incubated with ICC solution for 45 minutes at room temperature, incubated with primary antibodies overnight at 4° C., and incubated with secondary antibodies for 2 hours at room temperature. Cells were then washed twice with ICC solution and filtered before running on the LSRII flow cytometer (BD Biosciences). Analysis was completed with FlowJo.
Static GSIS: To assess the function of cells produced by the hybrid protocol, static GSIS was performed with cells still attached to 96 or 24-well tissue culture plates. To assess function of clusters generated with the planar protocol, approximately 30 clusters were collected and placed in tissue culture transwell inserts (MilliporeSigma, PIXP01250) in a 24-well plate. […] Cells were first incubated in a 2 mM glucose KRB solution at 37° C. for one hour, after which this solution was discarded and replaced with fresh 2 mM glucose KRB. After an additional hour, the supernatant was collected. 20 mM glucose KRB was added for the next hour, after which the supernatant was again collected. Cells were washed with fresh KRB during each solution change. Cells were then single-cell dispersed with TrypLE and counted with the Vi-Cell XR (Beckman Coulter). Supernatants from the low and high glucose challenges were quantified with a human insulin ELISA (ALPCO, 80-INSHU-E10.1), and cell counts were used to normalize insulin secretion.
Whole SC-β cell clusters or cells attached to culture plates were washed twice thoroughly with PBS. Half of the clusters or an equivalent well of plated cells were immersed in TrypLE for cell counts on the Vi-Cell XR. For the other half of the samples, a solution of 1.5% HCl and 70% ethanol was added to either the clusters in eppendorf tubes or directly onto plated cells. After 15 minutes, the plated cells were pipetted vigorously and transferred to eppendorf tubes. The eppendorf tubes from both clusters and plated cells were kept at −20° C. for 72 hours, vortexing vigorously every 24 hours. Samples were then centrifuged at 2100 RCF for 15 minutes. […] Proinsulin and insulin secretion were normalized to the viable cell counts.

[4] = 24 hour 1 μM treatment, stage 5

C/C1=C/C(=O)O[C@@H]2C[C@@H](CC[C@H](C)/C=C\C=C\CC1)O[C@@](O)([C@@H]1CSC(=O)N1)C2 [latrunculin A]
gene expression profile at stage 6 ([1]; 0.5 μM throughout stage 4): increasing intestine and stomach gene expression | gene expression profile at stage 6 ([1]; 1 μM for the first 24 hours of stage 5): increasing expression of β cell and islet genes | hepatocyte gene expression [2]: increased hepatocyte gene expression | immunostaining for AFP [2]: more prevalent with latrunculin A treatment | endocrine induction, SC-β cell specification and GSIS ([3]; 0.5 μM added during stage 5): greatest increase in endocrine induction, SC-β cell specification, and glucose-stimulated insulin secretion (GSIS) | endocrine induction and β-cell specification ([3]; 0.5 μM throughout either stage 4 or stage 6): increased both general endocrine induction (CHGA+) and β-cell specification (NKX6-1+/c-peptide+) | GSIS, optimization of duration and concentration during stage 5 ([3]; 1 μM during the first 24 hours of stage 5): most benefit at the shortest and lowest dose | expression of endocrine genes [3, 4]: increased expression of endocrine genes | expression of markers associated with other endodermal lineages [3, 4]: reduced | pro-insulin/insulin ratio [3, 4]: improved pro-insulin/insulin ratio | total insulin content [3, 4]: increased total insulin content
